Assay results published in patent US5162328A, “N-[3-[2-(1H-imidazol-1-yl)ethoxy]phenyl]-4-(2-thienyl)-2-pyrimidinamine and pharmacologically acceptable salts” (American Cyanamid Company, priority 1991, dated 1992).
Like-named read-outs stand apart in the source and are kept apart here.

Experiment: Pharmacokinetics in dogs (plasma concentration by HPLC)
Format: in vivo, dog (beagle)
Conditions: for AUC(0-t) / Cmax / Tmax / half-life / AUC(0-inf) / concentration at 0.5 h / concentration at 1 h / concentration at 2 h / concentration at 4 h / concentration at 7 h / concentration at 12 h: 2 mg/kg/day PO; for AUC(0-inf): read-out: AUCO- (to infinite time)
Protocol: Since dogs are used in toxicology studies of antiasthma compounds, this species is chosen for pharmacokinetic evaluations. Use of the dog permits the pharmacokinetic comparison of 2 or more compounds in the same test animal, an evaluation which could not be conveniently performed in a smaller species. For each test compound, normal dogs are given a dose of 2.0 mg/kg/day for 5 consecutive days. There is a washout period of 1 month between the study of each of the test compounds in the same four dogs. Each test compound is administered as a solution of 5 mg/ml in either 0.05 or 0.1N HCl which is dispensed into a gelatin capsule immediately prior to dosage.
Heparinized blood samples are obtained from each animal on the first, third and fifth day of dosage at 0.5, 1.0, 2.0, 4.0, 7.0, 12.0 and 24.0 hours after the dose. The samples are centrifuged immediately to obtain plasma which is frozen until analyzed.
Analysis of plasma is performed using High Performance Liquid Chromatography (HPLC). The analytical procedure is essentially identical for each compound. The internal standard used for N-[3-[2-(1H-imidazol-1-yl)ethoxy]phenyl]-4-(2-thienyl)2-pyrimidinamine is 2-chloro-11-(4-methyl-1-piperazinyl)dibenz[b,f][1,4]oxazepine succinate, while for 2-methyl-N^4 -[4-(4-pyridinyl)-2-pyrimidinyl]-1,4-benzenediamine dihydrochloride and N-[4-[2-(diethylamino)ethoxy]phenyl]-4-(4-pyridinyl)-2-pyrimidnamine dihydrochloride the internal standard is 7-ethoxy-coumarin. In a typical procedure, a 0.4 ml volume of acetonitrile containing internal standard is added a 0.2 ml volume of serum. The sample is mixed by vortexing and centrifuged. The clear protein free supernatent fluid is decanted into a clean tube and evaporated to dryness. The dry residue is dissolved in 0.2 ml of HPLC mobile phase and 50 ul of this solution injected. Peaks corresponding to the test compound being measured and to the internal standard compound are quantitated by their absorption of ultraviolet light at 280 nm. Each set of analytical samples is accompanied by the analysis of a group of standard dog plasma samples prepared to contain amounts of the compound being measured which encompasses the concentration range of the samples.
Four normal beagle dogs weighing between 9.2 and 10.2 Kg are used in the study.

[1] = dog, plasma, po, 2 mg/kg/day, Dog 3, day 3
[2] = dog, plasma, po, 2 mg/kg/day, Dog 3, day 5
[3] = dog, plasma, po, 2 mg/kg/day, Dog 4, day 1
[4] = dog, plasma, po, 2 mg/kg/day, Dog 4, day 3
[5] = dog, plasma, po, 2 mg/kg/day, Dog 4, day 5
[6] = dog, plasma, po, 2 mg/kg/day, Mean, day 1
[7] = dog, plasma, po, 2 mg/kg/day, Mean, day 3
[8] = dog, plasma, po, 2 mg/kg/day, Mean, day 5

AUC(0-t) [1]: 799 ng·h/mL | Cmax [1]: 350 ng/mL | Tmax [1]: 1 h | half-life [1]: 1.62 h | AUC(0-inf) [1]: 955 ng·h/mL | concentration at 0.5 h (dog, plasma, po, 2 mg/kg/day, Dog 3, day 5, 0.5 h): < 30 ng/mL | concentration at 1 h (dog, plasma, po, 2 mg/kg/day, Dog 3, day 5, 1 h): 272 ng/mL | concentration at 2 h (dog, plasma, po, 2 mg/kg/day, Dog 3, day 5, 2 h): 233 ng/mL | concentration at 4 h (dog, plasma, po, 2 mg/kg/day, Dog 3, day 5, 4 h): 114 ng/mL | concentration at 7 h (dog, plasma, po, 2 mg/kg/day, Dog 3, day 5, 7 h): < 30 ng/mL | concentration at 12 h (dog, plasma, po, 2 mg/kg/day, Dog 3, day 5, 12 h): < 30 ng/mL | AUC(0-t) [2]: 682 ng·h/mL | Cmax [2]: 272 ng/mL | Tmax [2]: 1 h | half-life [2]: 1.94 h | AUC(0-inf) [2]: 978 ng·h/mL | concentration at 0.5 h (dog, plasma, po, 2 mg/kg/day, Dog 4, day 1, 0.5 h): 173 ng/mL | concentration at 1 h (dog, plasma, po, 2 mg/kg/day, Dog 4, day 1, 1 h): 364 ng/mL | concentration at 2 h (dog, plasma, po, 2 mg/kg/day, Dog 4, day 1, 2 h): 325 ng/mL | concentration at 4 h (dog, plasma, po, 2 mg/kg/day, Dog 4, day 1, 4 h): 172 ng/mL | concentration at 7 h (dog, plasma, po, 2 mg/kg/day, Dog 4, day 1, 7 h): 40 ng/mL | concentration at 12 h (dog, plasma, po, 2 mg/kg/day, Dog 4, day 1, 12 h): < 30 ng/mL | AUC(0-t) [3]: 1340 ng·h/mL | Cmax [3]: 364 ng/mL | Tmax [3]: 1 h | half-life [3]: 1.64 h | AUC(0-inf) [3]: 1440 ng·h/mL | concentration at 0.5 h (dog, plasma, po, 2 mg/kg/day, Dog 4, day 3, 0.5 h): 65 ng/mL | concentration at 1 h (dog, plasma, po, 2 mg/kg/day, Dog 4, day 3, 1 h): 220 ng/mL | concentration at 2 h (dog, plasma, po, 2 mg/kg/day, Dog 4, day 3, 2 h): 144 ng/mL | concentration at 4 h (dog, plasma, po, 2 mg/kg/day, Dog 4, day 3, 4 h): 38 ng/mL | concentration at 7 h (dog, plasma, po, 2 mg/kg/day, Dog 4, day 3, 7 h): < 30 ng/mL | concentration at 12 h (dog, plasma, po, 2 mg/kg/day, Dog 4, day 3, 12 h): < 30 ng/mL | AUC(0-t) [4]: 452 ng·h/mL | Cmax [4]: 220 ng/mL | Tmax [4]: 1 h | half-life [4]: 1.61 h | AUC(0-inf) [4]: 551 ng·h/mL | concentration at 0.5 h (dog, plasma, po, 2 mg/kg/day, Dog 4, day 5, 0.5 h): < 30 ng/mL | concentration at 1 h (dog, plasma, po, 2 mg/kg/day, Dog 4, day 5, 1 h): 191 ng/mL | concentration at 2 h (dog, plasma, po, 2 mg/kg/day, Dog 4, day 5, 2 h): 197 ng/mL | concentration at 4 h (dog, plasma, po, 2 mg/kg/day, Dog 4, day 5, 4 h): 71 ng/mL | concentration at 7 h (dog, plasma, po, 2 mg/kg/day, Dog 4, day 5, 7 h): < 30 ng/mL | concentration at 12 h (dog, plasma, po, 2 mg/kg/day, Dog 4, day 5, 12 h): < 30 ng/mL | AUC(0-t) [5]: 510 ng·h/mL | Cmax [5]: 197 ng/mL | Tmax [5]: 2 h | AUC(0-inf) [5]: 694 ng·h/mL | concentration at 0.5 h (dog, plasma, po, 2 mg/kg/day, Mean of 4 dogs, day 1, 0.5 h): 235 ng/mL | concentration at 1 h (dog, plasma, po, 2 mg/kg/day, Mean of 4 dogs, day 1, 1 h): 405 ng/mL | concentration at 2 h (dog, plasma, po, 2 mg/kg/day, Mean of 4 dogs, day 1, 2 h): 318 ng/mL | concentration at 4 h (dog, plasma, po, 2 mg/kg/day, Mean of 4 dogs, day 1, 4 h): 188 ng/mL | concentration at 7 h (dog, plasma, po, 2 mg/kg/day, Mean of 4 dogs, day 1, 7 h): 52 ng/mL | concentration at 12 h (dog, plasma, po, 2 mg/kg/day, Mean of 4 dogs, day 1, 12 h): < 30 ng/mL | concentration at 0.5 h (dog, plasma, po, 2 mg/kg/day, Mean of 4 dogs, day 3, 0.5 h): 89 ng/mL | concentration at 1 h (dog, plasma, po, 2 mg/kg/day, Mean of 4 dogs, day 3, 1 h): 225 ng/mL | concentration at 2 h (dog, plasma, po, 2 mg/kg/day, Mean of 4 dogs, day 3, 2 h): 148 ng/mL | concentration at 4 h (dog, plasma, po, 2 mg/kg/day, Mean of 4 dogs, day 3, 4 h): 33 ng/mL | concentration at 7 h (dog, plasma, po, 2 mg/kg/day, Mean of 4 dogs, day 3, 7 h): < 30 ng/mL | concentration at 12 h (dog, plasma, po, 2 mg/kg/day, Mean of 4 dogs, day 3, 12 h): < 30 ng/mL | concentration at 0.5 h (dog, plasma, po, 2 mg/kg/day, Mean of 4 dogs, day 5, 0.5 h): 106 ng/mL | concentration at 1 h (dog, plasma, po, 2 mg/kg/day, Mean of 4 dogs, day 5, 1 h): 276 ng/mL | concentration at 2 h (dog, plasma, po, 2 mg/kg/day, Mean of 4 dogs, day 5, 2 h): 212 ng/mL | concentration at 4 h (dog, plasma, po, 2 mg/kg/day, Mean of 4 dogs, day 5, 4 h): 82 ng/mL | concentration at 7 h (dog, plasma, po, 2 mg/kg/day, Mean of 4 dogs, day 5, 7 h): < 30 ng/mL | concentration at 12 h (dog, plasma, po, 2 mg/kg/day, Mean of 4 dogs, day 5, 12 h): < 30 ng/mL | AUC(0-t) [6]: 1380 ng·h/mL | Cmax [6]: 405 ng/mL | Tmax [6]: 1 h | half-life [6]: 2.27 h | AUC(0-inf) [6]: 1620 ng·h/mL | AUC(0-t) [7]: 444 ng·h/mL | Cmax [7]: 225 ng/mL | Tmax [7]: 1 h | half-life [7]: 1.47 h | AUC(0-inf) [7]: 595 ng·h/mL | AUC(0-t) [8]: 659 ng·h/mL | Cmax [8]: 277 ng/mL | Tmax [8]: 1.25 h | half-life [8]: 1.5 h | AUC(0-inf) [8]: 871 ng·h/mL | k el (dog, plasma, po, 2 mg/kg/day, derived from mean of half-life values, read-out: elimination constant (converted)): 0.000107 s⁻¹
SMILES: c1cc(Nc2nccc(-c3cccs3)n2)cc(OCCn2ccnc2)c1 [N-[3-[2-(1H-imidazol-1-yl)ethoxy]phenyl]-4-(2-thienyl)-2-pyrimidinamine]
plasma half-life (in words) (dogs, compared with the two compounds of U.S. Pat. No. 4,788,195): increased plasma half-life and reproducibility
